Measured values taken from patent US9321790B2, “Pyrimidinone derivatives as antimalarial agents” (SANOFI, priority 2012, dated 2016).
Where two headings read alike, the source gives them in different places.

Key:
[1] = test system: Plasmodium falciparum (strain NF54); assay: Antimalarial activity test: growth of Plasmodium falciparum in infected human erythrocytes, 3H-hypoxanthine incorporation; format: cell-based; conditions: strain NF54 sensitive to chloroquine, 72 h total incubation
Method in brief: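 Chloroquine-sensitive NF54 parasites in human erythrocytes (1.25% hematocrit, 0.15% parasitemia) were grown in hypoxanthine-free RPMI 1640 with HEPES and Albumax II, with compound in twofold serial dilution, at 37 °C under 93% N2/4% CO2/3% O2. After 48 h, 3H-hypoxanthine (0.5 μCi) was added for 24 h. Scintillation counts versus drug-free control gave IC50.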

human PI3Kα = human PI3Kα (Homo sapiens (Human), UniProt P42336); assay: Human PI3Kα activity test (luciferin/luciferase ATP consumption, KinaseGlo); format: biochemical
Sequence of human PI3Kα (P42336 whole entry): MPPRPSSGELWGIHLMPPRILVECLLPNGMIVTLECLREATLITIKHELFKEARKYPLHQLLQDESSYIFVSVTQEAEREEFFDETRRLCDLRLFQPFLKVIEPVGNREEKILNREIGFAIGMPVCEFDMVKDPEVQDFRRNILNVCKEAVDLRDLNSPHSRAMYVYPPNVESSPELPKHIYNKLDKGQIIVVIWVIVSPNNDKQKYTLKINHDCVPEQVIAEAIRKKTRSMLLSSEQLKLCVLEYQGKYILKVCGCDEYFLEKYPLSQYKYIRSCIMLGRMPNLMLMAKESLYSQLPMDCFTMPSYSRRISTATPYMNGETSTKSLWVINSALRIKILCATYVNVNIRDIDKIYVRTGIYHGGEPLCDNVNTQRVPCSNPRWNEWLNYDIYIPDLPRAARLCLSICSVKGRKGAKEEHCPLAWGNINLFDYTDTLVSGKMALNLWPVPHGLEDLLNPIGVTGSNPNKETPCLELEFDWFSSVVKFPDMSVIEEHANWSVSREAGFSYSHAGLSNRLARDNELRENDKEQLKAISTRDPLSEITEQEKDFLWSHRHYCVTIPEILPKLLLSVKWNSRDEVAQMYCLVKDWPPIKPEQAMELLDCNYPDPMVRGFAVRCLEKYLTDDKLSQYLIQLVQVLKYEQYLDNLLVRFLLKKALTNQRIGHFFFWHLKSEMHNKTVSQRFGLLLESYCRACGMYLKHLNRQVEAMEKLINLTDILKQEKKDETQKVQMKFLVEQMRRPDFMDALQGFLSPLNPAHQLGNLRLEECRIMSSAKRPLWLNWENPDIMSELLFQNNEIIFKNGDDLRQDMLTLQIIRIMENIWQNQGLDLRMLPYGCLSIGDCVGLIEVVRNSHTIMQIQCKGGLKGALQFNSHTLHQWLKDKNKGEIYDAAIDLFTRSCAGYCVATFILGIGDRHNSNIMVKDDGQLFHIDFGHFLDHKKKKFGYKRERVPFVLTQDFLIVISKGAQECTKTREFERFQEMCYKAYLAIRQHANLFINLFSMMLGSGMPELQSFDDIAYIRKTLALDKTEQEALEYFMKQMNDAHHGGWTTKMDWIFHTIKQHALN
Sequence of human PI3Kα (P27986 whole entry partner): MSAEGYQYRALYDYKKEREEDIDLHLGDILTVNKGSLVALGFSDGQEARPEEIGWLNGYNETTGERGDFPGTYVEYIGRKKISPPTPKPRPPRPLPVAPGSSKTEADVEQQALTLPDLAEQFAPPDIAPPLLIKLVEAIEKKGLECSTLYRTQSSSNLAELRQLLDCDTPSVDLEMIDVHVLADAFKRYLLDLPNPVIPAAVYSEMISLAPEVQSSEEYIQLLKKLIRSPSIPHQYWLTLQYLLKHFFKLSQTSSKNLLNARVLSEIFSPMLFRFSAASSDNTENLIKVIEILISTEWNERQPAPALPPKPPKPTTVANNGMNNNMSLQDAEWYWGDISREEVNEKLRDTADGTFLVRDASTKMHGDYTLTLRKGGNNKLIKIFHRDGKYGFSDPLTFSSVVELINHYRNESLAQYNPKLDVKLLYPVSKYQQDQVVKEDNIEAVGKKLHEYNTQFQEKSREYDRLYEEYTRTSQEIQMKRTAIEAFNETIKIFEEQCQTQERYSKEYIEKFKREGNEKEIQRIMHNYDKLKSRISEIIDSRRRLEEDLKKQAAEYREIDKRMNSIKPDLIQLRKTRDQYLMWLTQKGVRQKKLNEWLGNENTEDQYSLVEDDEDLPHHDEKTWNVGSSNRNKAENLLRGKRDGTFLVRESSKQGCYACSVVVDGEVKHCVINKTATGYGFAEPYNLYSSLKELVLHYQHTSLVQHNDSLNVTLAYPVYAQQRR
Experimental: The test uses a luciferin/luciferase system to measure the concentration of ATP and its consumption during the enzymatic reaction.
After 90 minutes, the reaction is quenched by adding 20 μl/well of KinaseGlo reagent (Promega V6713). After 10 minutes in the dark, the luminescence is read using a PHERAStar microplate reader (reading at 0.8 sec/well).

[2] = Plasmodium falciparum, Erythrocyte
[3] = PI3Kα (p110α/p85α), 50 μM PIP2, 2 μM ATP, 90 minutes, read-out: IC50 Human PI3Kα

Row | SMILES | IC50 [1, 2] [nM] | IC50 (human PI3Kα; [3]) [nM] | IC50 (human PI3Kα) [nM] | IC50 [1] [nM]
1 | C[C@@]1(C(F)(F)F)Cn2c(nc(N3CC4CCC(C3)O4)cc2=O)N1CCCc1ccccc1 [Compound 77, (S)-2-Methyl-7-(8-oxa-3-azabicyclo[3.2.1]oct-3-yl)-1-(3-phenylpropyl)-2-trifluoromethyl-2,3-dihydro-1H-imidazo[1,2-a]pyrimidin-5-one] | 160 | 820 | – | –
2 | Cc1ccncc1C(=O)CN1c2nc(N3C[C@@H]4C[C@H]3CO4)cc(=O)n2CC[C@H]1C(F)(F)F [Compound 20, (8S)-9-[2-(4-methylpyrid-3-yl)-2-oxoethyl]-2-(1S,4S)-2-oxa-5-azabicyclo[2.2.1]hept-5-yl-8-trifluoromethyl-6,7,8,9-tetrahydropyrimido[1,2-a]pyrimidin-4-one] | 35 | > 10000 | – | –
3 | O=C(CN1c2nc(N3C[C@@H]4C[C@H]3CO4)cc(=O)n2CC[C@H]1C(F)(F)F)N1C2CCC1COC2 [Compound 99, (8S)-2-(1S,4S)-2-oxa-5-azabicyclo[2.2.1]hept-5-yl-9-[2-(3-oxa-8-azabicyclo[3.2.1]oct-8-yl)-2-oxoethyl]-8-trifluoromethyl-6,7,8,9-tetrahydropyrimido[1,2-a]pyrimidin-4-one] | 170 | – | > 10000 | –
4 | Cn1cncc1C(=O)CN1c2nc(N3C[C@@H]4C[C@H]3CO4)cc(=O)n2CC[C@H]1C(F)(F)F [Compound 66, (8S)-9-[2-(3-Methyl-3H-imidazol-4-yl)-2-oxoethyl]-2-(1S,4S)-2-oxa-5-azabicyclo[2.2.1]hept-5-yl-8-trifluoromethyl-6,7,8,9-tetrahydropyrimido[1,2-a]pyrimidin-4-one] | 73 | > 10000 | – | –
5 | CCNC(=O)Nc1ccc(CCN2c3nc(N4C[C@@H]5C[C@H]4CO5)cc(=O)n3CC[C@H]2C(F)(F)F)cc1 [Compound 23, 1-ethyl-3-{4-[2-((8S)-8-(1S,4S)-2-oxa-5-azabicyclo[2.2.1]hept-5-yl-6-oxo-2-trifluoromethyl-3,4-dihydro-2H,6H-pyrimido[1,2-a]pyrimidin-1-yl)ethyl]phenyl}urea] | 3 | 1040 | – | –
6 | CCOC(=O)N1CCC(C(=O)CN2c3nc(N4C[C@@H]5C[C@H]4CO5)cc(=O)n3CC[C@H]2C(F)(F)F)CC1 [Compound 91, 4-[2-((S)-8-(1S,4S)-2-Oxa-5-azabicyclo[2.2.1]hept-5-yl-6-oxo-2-trifluoromethyl-3,4-dihydro-2H,6H-pyrimido[1,2-a]pyrimidin-1-yl)acetyl]piperidine-1-carboxylic acid ethyl ester] | – | > 10000 | – | 25
7 | Cc1ccc(C(=O)CN2c3nc(N4C[C@@H]5C[C@H]4CO5)cc(=O)n3CC[C@H]2C(F)(F)F)cn1 [Compound 4, (8S)-9-[2-(6-methylpyrid-3-yl)-2-oxoethyl]-2-(1S,4S)-2-oxa-5-azabicyclo[2.2.1]hept-5-yl-8-trifluoromethyl-6,7,8,9-tetrahydropyrimido[1,2-a]pyrimidin-4-one] | 58 | > 10000 | – | –
8 | Cc1ncoc1C(=O)CN1c2nc(N3C[C@@H]4C[C@H]3CO4)cc(=O)n2CC[C@H]1C(F)(F)F [Compound 39, (8S)-9-[2-(4-Methyloxazol-5-yl)-2-oxoethyl]-2-(1S,4S)-2-oxa-5-azabicyclo[2.2.1]hept-5-yl-8-trifluoromethyl-6,7,8,9-tetrahydropyrimido[1,2-a]pyrimidin-4-one] | 98 | > 10000 | – | –
9 | COc1ncccc1C(=O)CN1c2nc(N3C[C@@H]4C[C@H]3CO4)cc(=O)n2CC[C@H]1C(F)(F)F [Compound 65, (8S)-9-[2-(2-Methoxypyrid-3-yl)-2-oxoethyl]-2-(1S,4S)-2-oxa-5-azabicyclo[2.2.1]hept-5-yl-8-trifluoromethyl-6,7,8,9-tetrahydropyrimido[1,2-a]pyrimidin-4-one] | 21 | > 10000 | – | –
10 | CC(=O)N1CCC(C(=O)CN2c3nc(N4C[C@@H]5C[C@H]4CO5)cc(=O)n3CC[C@H]2C(F)(F)F)CC1 [Compound 119, (8S)-9-[2-(1-Acetylpiperid-4-yl)-2-oxoethyl]-2-(1S,4S)-2-oxa-5-azabicyclo[2.2.1]hept-5-yl-8-trifluoromethyl-6,7,8,9-tetrahydropyrimido[1,2-a]pyrimidin-4-one] | 30 | > 10000 | – | –
11 | N#Cc1cccc(C(=O)CN2c3nc(N4C[C@@H]5C[C@H]4CO5)cc(=O)n3CC[C@H]2C(F)(F)F)c1 [Compound 55, 3-[2-((S)-8-(1S,4S)-2-Oxa-5-azabicyclo[2.2.1]hept-5-yl-6-oxo-2-trifluoromethyl-3,4-dihydro-2H,6H-pyrimido[1,2-a]pyrimidin-1-yl)acetyl]benzonitrile] | – | > 10000 | – | 28
12 | Cc1ncccc1C(=O)CN1c2nc(N3C[C@@H]4C[C@H]3CO4)cc(=O)n2C[C@@]1(C)C(F)(F)F [Compound 18, 2-Methyl-1-[2-(2-methylpyrid-3-yl)-2-oxoethyl]-7-(1S,4S)-2-oxa-5-azabicyclo[2.2.1]hept-5-yl-2-((S)-trifluoromethyl)-2,3-dihydro-1H-imidazo[1,2-a]pyrimidin-5-one] | – | > 10000 | – | 93
13 | CCC(O)(CC)CN1c2nc(N3C[C@@H]4C[C@H]3CO4)cc(=O)n2CC[C@H]1C(F)(F)F [Compound 54, (8S)-9-(2-ethyl-2-hydroxybutyl)-2-(1S,4S)-2-oxa-5-azabicyclo[2.2.1]hept-5-yl-8-trifluoromethyl-6,7,8,9-tetrahydropyrimido[1,2-a]pyrimidin-4-one] | 10 | 2210 | – | –
14 | CC(C)(O)CCN1c2nc(N3C[C@@H]4C[C@H]3CO4)cc(=O)n2CC[C@H]1C(F)(F)F [Compound 50, (8S)-9-(3-hydroxy-3-methylbutyl)-2-(1S,4S)-2-oxa-5-azabicyclo[2.2.1]hept-5-yl-8-trifluoromethyl-6,7,8,9-tetrahydropyrimido[1,2-a]pyrimidin-4-one] | 8 | 4300 | – | –
15 | Cn1cc(CN2c3nc(N4C[C@@H]5C[C@H]4CO5)cc(=O)n3CC[C@H]2C(F)(F)F)c(C(F)(F)F)n1 [Compound 116, (8S)-9-(1-Methyl-3-trifluoromethyl-1H-pyrazol-4-ylmethyl)-2-(1S,4S)-2-oxa-5-azabicyclo[2.2.1]hept-5-yl-8-trifluoromethyl-6,7,8,9-tetrahydropyrimido[1,2-a]pyrimidin-4-one] | 117 | > 10000 | – | –
16 | O=C(CN1c2nc(N3C[C@@H]4C[C@H]3CO4)cc(=O)n2CC[C@H]1C(F)(F)F)C1CCOCC1 [Compound 62, (8S)-2-(1S,4S)-2-Oxa-5-azabicyclo[2.2.1]hept-5-yl-9-[2-oxo-2-(tetrahydropyran-4-yl)ethyl]-8-trifluoromethyl-6,7,8,9-tetrahydropyrimido[1,2-a]pyrimidin-4-one] | 11 | > 10000 | – | –
17 | Cc1ncccc1C(=O)CN1c2nc(N3C[C@@H]4C[C@H]3CO4)cc(=O)n2CC[C@H]1C(F)(F)F [Compound 19, (8S)-9-[2-(2-methylpyrid-3-yl)-2-oxoethyl]-2-(1S,4S)-2-oxa-5-azabicyclo[2.2.1]hept-5-yl-8-trifluoromethyl-6,7,8,9-tetrahydropyrimido[1,2-a]pyrimidin-4-one] | 24 | > 10000 | – | –
18 | O=c1cc(N2C[C@@H]3C[C@H]2CO3)nc2n1CC[C@@H](C(F)(F)F)N2CCC1(O)CC1 [Compound 105, (8S)-9-[2-(1-Hydroxycyclopropyl)ethyl]-2-(1S,4S)-2-oxa-5-azabicyclo[2.2.1]hept-5-yl-8-trifluoromethyl-6,7,8,9-tetrahydropyrimido[1,2-a]pyrimidin-4-one] | 24 | 1900 | – | –
19 | O=C(CN1c2nc(N3C[C@@H]4C[C@H]3CO4)cc(=O)n2CC[C@H]1C(F)(F)F)c1ccc2snnc2c1 [Compound 47, (8S)-9-(2-benzo[1,2,3]thiadiazol-5-yl-2-oxoethyl)-2-(1S,4S)-2-oxa-5-azabicyclo[2.2.1]hept-5-yl-8-trifluoromethyl-6,7,8,9-tetrahydropyrimido[1,2-a]pyrimidin-4-one] | 13 | > 10000 | – | –
